Experiment [1] concerns E. coli ATCC 25922 (AECO001). Briefly: MIC assay, CLSI broth microdilution. The experiment is classed as cell-based. Also on record: MIC AECO001: unit not given here. Conditions: for MIC: Escherichia coli. The procedure:
(§1) Minimum inhibitory concentrations (MIC) were determined by reference Clinical and Laboratory Standards Institute (CLSI) broth microdilution methods per M7-A7 [2006]. Quality control ranges utilizing E. coli ATCC 25922, P. aeruginosa ATCC 27853 and S. aureus ATCC 29213, and interpretive criteria for comparator agents were as published in CLSI M100-S17 [2007]. Briefly, serial two-fold dilutions of the test compounds were prepared at 2× concentration in Mueller Hinton Broth. The compound dilutions were mixed in 96-well assay plates in a 1:1 ratio with bacterial inoculum. The inoculum was prepared by suspension of a colony from an agar plate that was prepared the previous day. Bacteria were suspended in sterile saline and added to each assay plate to obtain a final concentration of 5×10^5 CFU/mL. The plates were incubated at 35° C. for 20 hours in ambient air.

Experiment [2] has as its system P. aeruginosa ATCC 27853 (APAE001). Briefly: MIC assay, CLSI broth microdilution. The experiment is classed as cell-based. Conditions: Pseudomonas aeruginosa. The protocol:
as §1

[3] abbreviates: ATCC25922, read-out: MIC AECO001.
[4] abbreviates: ATCC27853, read-out: MIC APAE001.
[5] abbreviates: Table 1, AECO001 is ATCC25922, read-out: MIC AECO001.
Where [6] appears, read: Table 1, APAE001 is ATCC27853, read-out: MIC APAE001.

26 molecules from patent US20190374563A1, “TREATMENT OF KLEBSIELLA PNEUMONIAE INFECTIONS WITH ANTIBACTERIAL AMINOGLYCOSIDE COMPOUNDS” (Achaogen, Inc., priority 2009, published 2019) can be followed below.

Converted amounts (≈) assume the structure as drawn. Read-outs that look alike come from different tables or passages of the source.

With `CN[C@@H]1[C@@H](O)[C@@H](O[C@@H]2[C@@H](O)[C@H](O[C@H]3OC(CNCC(N)CO)=CC[C@H]3N)[C@@H](N)C[C@H]2NC(=O)[C@@H](O)CCN)OC[C@]1(C)O` (stereo partly drawn) [Example 30, 6′-(2-Amino-propanol)-1-(4-amino-2(S)-hydroxy-butyryl)-sisomicin], the MIC is less than 1 µg/mL in experiment [1] (setting [3]) and 1 to 16 µg/mL (≈ 1.61 to 25.7 µM) in experiment [2] (setting [4]).
Taken in the same sequence, the figures for `CN[C@@H]1[C@@H](O)[C@@H](O[C@@H]2[C@@H](O)[C@H](O[C@H]3OC(CNCC4(O)CCNCC4)=CC[C@H]3N)[C@@H](N)C[C@H]2NC(=O)[C@@H](O)CCN)OC[C@]1(C)O` [Example 31] were 1 to 16 µg/mL (≈ 1.51 to 24.2 µM) and 1 to 16 µg/mL (≈ 1.51 to 24.2 µM).
Regarding `CN[C@@H]1[C@@H](O)[C@@H](O[C@@H]2[C@@H](O)[C@H](O[C@H]3OC(CNCC(O)CCCN)=CC[C@H]3N)[C@@H](N)C[C@H]2NC(=O)[C@@H](O)CCN)OC[C@]1(C)O` (stereo partly drawn) [Example 32, 6′-(2-Hydroxy-5-amino-pentyl)-1-(4-amino-2(S)-hydroxy-butyryl)-sisomicin], the minimal inhibitory concentration (MIC) was less than 1 µg/mL in experiment [1] (setting [3]) and 1 to 16 µg/mL (≈ 1.54 to 24.6 µM) in experiment [2] (setting [4]).
Taken in the same sequence, the figures for `CN[C@@H]1[C@@H](O)[C@@H](O[C@@H]2[C@@H](O)[C@H](O[C@H]3OC(CNC[C@H]4C[C@H](N)C4)=CC[C@H]3N)[C@@H](N)C[C@H]2NC(=O)[C@@H](O)CCN)OC[C@]1(C)O` [Example 33, 6′-(Methyl-trans-3-amino-cyclobutyl)-1-(4-amino-2(S)-hydroxy-butyryl)-sisomicin] were less than 1 µg/mL and 1 to 16 µg/mL (≈ 1.58 to 25.3 µM).
For `CN[C@@H]1[C@@H](O)[C@@H](O[C@@H]2[C@@H](O)[C@H](O[C@H]3OC(CNCC(O)CCN)=CC[C@H]3N)[C@@H](N)C[C@H]2NC(=O)C2(O)CCNC2)OC[C@]1(C)O` (some centres unmarked) [Example 35] the same measures were less than 1 µg/mL and 1 to 16 µg/mL (≈ 1.54 to 24.7 µM).
Taken in the same sequence, the figures for `CN[C@@H]1[C@@H](O)[C@@H](O[C@@H]2[C@@H](O)[C@H](O[C@H]3OC(CNCCO)=CC[C@H]3N)[C@@H](N)C[C@H]2NC(=O)C2(O)CNC2)OC[C@]1(C)O` [Example 37] were less than 1 µg/mL and 1 to 16 µg/mL (≈ 1.69 to 27.1 µM).
Regarding `CN[C@@H]1[C@@H](O)[C@@H](O[C@@H]2[C@@H](O)[C@H](O[C@H]3OC(CNCCN)=CC[C@H]3N)[C@@H](N)C[C@H]2NC(=O)[C@@H](O)CCN)OC[C@]1(C)O` [Example 38, 6′-(2-Amino-ethyl)-1-(4-amino-2(S)-hydroxy-butyryl)-sisomicin], the MIC was less than 1 µg/mL in experiment [1] (setting [3]) and 1 to 16 µg/mL (≈ 1.69 to 27 µM) in experiment [2] (setting [4]).
Taken in the same sequence, the figures for `CN[C@@H]1[C@@H](O)[C@@H](O[C@@H]2[C@@H](O)[C@H](O[C@H]3OC(CNCCCN)=CC[C@H]3N)[C@@H](N)C[C@H]2NC(=O)C2(O)CCNC2)OC[C@]1(C)O` (some centres unmarked) [Example 40] were 1 to 16 µg/mL (≈ 1.62 to 25.9 µM) and 1 to 16 µg/mL (≈ 1.62 to 25.9 µM).
On to `CN[C@@H]1[C@@H](O)[C@@H](O[C@@H]2[C@@H](O)[C@H](O[C@H]3OC(CNCC4CC4)=CC[C@H]3N)[C@@H](N)C[C@H]2NC(=O)C2(O)CCNC2)OC[C@]1(C)O` (some centres unmarked) [Example 41], for which the MIC in experiment [1] (setting [3]) is less than 1 µg/mL; in experiment [2] (setting [4]), 1 to 16 µg/mL (≈ 1.63 to 26 µM).
For `CN[C@@H]1[C@@H](O)[C@@H](O[C@@H]2[C@@H](O)[C@H](O[C@H]3OC(CNCC(O)CN)=CC[C@H]3N)[C@@H](N)C[C@H]2NC(=O)C2(O)CCNC2)OC[C@]1(C)O` (some centres unmarked) [Example 42, 6′-(2-Hydroxy-3-amino-propyl)-1-(3-hydroxy-pyrrolidin-3-yl-acetyl)-sisomicin] the same measures were 1 to 16 µg/mL (≈ 1.58 to 25.2 µM) and 1 to 16 µg/mL (≈ 1.58 to 25.2 µM).
As to `CN[C@@H]1[C@@H](O)[C@@H](O[C@@H]2[C@@H](O)[C@H](O[C@H]3OC(CNCCCCN)=CC[C@H]3N)[C@@H](N)C[C@H]2NC(=O)[C@@H](O)CCN)OC[C@]1(C)O` [Example 43, 6′-(4-Amino-butyl)-1-(4-amino-2(S)-hydroxy-butyryl)-sisomicin], the MIC in experiment [1] (setting [3]) and in experiment [2] (setting [4]) was less than 1 µg/mL throughout.
Turning to `CN[C@@H]1[C@@H](O)[C@@H](O[C@@H]2[C@@H](O)[C@H](O[C@H]3OC(CNCCCCCN)=CC[C@H]3N)[C@@H](N)C[C@H]2NC(=O)[C@@H](O)CCN)OC[C@]1(C)O` [Example 44, 6′-(5-Amino-pentyl)-1-(4-amino-2(S)-hydroxy-butyryl)-sisomicin], the MIC in experiment [1] (setting [3]) was less than 1 µg/mL; in experiment [2] (setting [4]), 1 to 16 µg/mL (≈ 1.58 to 25.2 µM).
With `CN[C@@H]1[C@@H](O)[C@@H](O[C@@H]2[C@@H](O)[C@H](O[C@H]3OC(CNCCC4CNCCN4C)=CC[C@H]3N)[C@@H](N)C[C@H]2NC(=O)[C@@H](O)CCN)OC[C@]1(C)O` (some centres unmarked) [Example 45], the MIC was less than 1 µg/mL in experiment [1] (setting [5]) and 1 to 16 µg/mL (≈ 1.48 to 23.7 µM) in experiment [2] (setting [6]).
`CN[C@@H]1[C@@H](O)[C@@H](O[C@@H]2[C@@H](O)[C@H](O[C@H]3OC(CNCC4(O)CC(N)C4)=CC[C@H]3N)[C@@H](N)C[C@H]2NC(=O)[C@@H](O)CCN)OC[C@]1(C)O` (some centres unmarked) [Example 46]: the MIC in experiment [1] (setting [3]) is less than 1 µg/mL; in experiment [2] (setting [4]) it was 1 to 16 µg/mL (≈ 1.54 to 24.7 µM).
Taken in the same sequence, the figures for `CN[C@@H]1[C@@H](O)[C@@H](O[C@@H]2[C@@H](O)[C@H](O[C@H]3OC(CNCC4(O)CC(N)C4)=CC[C@H]3N)[C@@H](N)C[C@H]2NC(=O)C2(O)CNC2)OC[C@]1(C)O` (some centres unmarked) [Example 47] were 1 to 16 µg/mL (≈ 1.55 to 24.8 µM) and 1 to 16 µg/mL (≈ 1.55 to 24.8 µM).
For the molecule `CN[C@@H]1[C@@H](O)[C@@H](O[C@@H]2[C@@H](O)[C@H](O[C@H]3OC(CNCCCN)=CC[C@H]3N)[C@@H](N)C[C@H]2NC(=O)[C@@H](O)CCN)OC[C@]1(C)O` [Example 48, 6′-(3-Amino-propyl)-1-(4-amino-2(S)-hydroxy-butyryl)-sisomicin], the MIC in experiment [1] (setting [5]) is less than 1 µg/mL; in experiment [2] (setting [6]), 1 to 16 µg/mL (≈ 1.65 to 26.4 µM). Also, the “MIC AECO001” value in experiment [1] (Table 3, E. coli ATCC25922) is on record as 1.
For the molecule `CN[C@@H]1[C@@H](O)[C@@H](O[C@@H]2[C@@H](O)[C@H](O[C@H]3OC(CNCC4CCCN4)=CC[C@H]3N)[C@@H](N)C[C@H]2NC(=O)[C@@H](O)CCN)OC[C@]1(C)O` (stereo partly drawn) [Example 49, 6′-(Methyl-pyrrolidin-2-yl)-1-(4-amino-2(S)-hydroxy-butyryl)-sisomicin], the MIC in experiment [1] (setting [3]) was less than 1 µg/mL; in experiment [2] (setting [4]) it was 1 to 16 µg/mL (≈ 1.58 to 25.3 µM).
For `CN[C@@H]1[C@@H](O)[C@@H](O[C@@H]2[C@@H](O)[C@H](O[C@H]3OC(CNC[C@H](O)C(=O)O)=CC[C@H]3N)[C@@H](N)C[C@H]2NC(=O)[C@@H](O)CCN)OC[C@]1(C)O` [Example 50, 6′-(2(S)-Hydroxy-3-propanoic)-1-(4-amino-2(S)-hydroxy-butyryl)-sisomicin] the same measures were more than 16 µg/mL and more than 16 µg/mL.
Taken in the same sequence, the figures for `CN[C@@H]1[C@@H](O)[C@@H](O[C@@H]2[C@@H](O)[C@H](O[C@H]3OC(CNCC(C)(C)CN)=CC[C@H]3N)[C@@H](N)C[C@H]2NC(=O)[C@@H](O)CN)OC[C@]1(C)O` [Example 51, 6′-(2,2-Dimethyl-3-amino-propyl)-1-(3-amino-2(S)-hydroxy-propionyl)-sisomicin] were less than 1 µg/mL and more than 16 µg/mL.
For `CN[C@@H]1[C@@H](O)[C@@H](O[C@@H]2[C@@H](O)[C@H](O[C@H]3OC(CNCCC(N)C4CC4)=CC[C@H]3N)[C@@H](N)C[C@H]2NC(=O)[C@@H](O)CN)OC[C@]1(C)O` (stereo partly drawn) [Example 52, 6′-(3-Amino-3-cyclopropyl-propyl)-1-(3-amino-2(S)-hydroxy-propionyl)-sisomicin] the same measures were less than 1 µg/mL and 1 to 16 µg/mL (≈ 1.58 to 25.3 µM).
For the molecule `CN[C@@H]1[C@@H](O)[C@@H](O[C@@H]2[C@@H](O)[C@H](O[C@H]3OC(CNC[C@H]4C[C@H](O)CN4)=CC[C@H]3N)[C@@H](N)C[C@H]2NC(=O)[C@@H](O)CN)OC[C@]1(C)O` [Example 53, 6′-(Methyl-4(S)-hydroxy-pyrrolidin-2(R)-yl)-1-(3-amino-2(S)-hydroxy-propionyl)-sisomicin], the MIC in experiment [1] (setting [3]) was 1 to 16 µg/mL (≈ 1.58 to 25.2 µM); in experiment [2] (setting [4]) it was more than 16 µg/mL.
Take `CN[C@@H]1[C@@H](O)[C@@H](O[C@@H]2[C@@H](O)[C@H](O[C@H]3OC(CNCCCO)=CC[C@H]3N)[C@@H](N)C[C@H]2NC(=O)[C@@H](O)CN)OC[C@]1(C)O` [Example 54, 6′-(3-Propanol)-1-(3-amino-2(S)-hydroxy-propionyl)-sisomicin]: the MIC in experiment [1] (setting [3]) is less than 1 µg/mL; in experiment [2] (setting [4]) it was 1 to 16 µg/mL (≈ 1.69 to 27 µM).
With `CN[C@@H]1[C@@H](O)[C@@H](O[C@@H]2[C@@H](O)[C@H](O[C@H]3OC(CNCC(C)(C)N)=CC[C@H]3N)[C@@H](N)C[C@H]2NC(=O)[C@@H](O)CN)OC[C@]1(C)O` [Example 55, 6′-(2-Methyl-2-amino-propyl)-1-(3-amino-2(S)-hydroxy-propionyl)-sisomicin], the MIC in experiment [1] (setting [3]) was 1 to 16 µg/mL (≈ 1.65 to 26.4 µM); in experiment [2] (setting [4]) it was more than 16 µg/mL.
For `CN[C@@H]1[C@@H](O)[C@@H](O[C@@H]2[C@@H](O)[C@H](O[C@H]3OC(CNCC4(N)CCC4)=CC[C@H]3N)[C@@H](N)C[C@H]2NC(=O)[C@@H](O)CN)OC[C@]1(C)O` [Example 56, 6′-(Methyl-1-amino-cyclobutyl)-1-(3-amino-2(S)-hydroxy-propionyl)-sisomicin] the same measures were less than 1 µg/mL and more than 16 µg/mL.
For the molecule `CN[C@@H]1[C@@H](O)[C@@H](O[C@@H]2[C@@H](O)[C@H](O[C@H]3OC(CNC[C@H]4C[C@H](N)C4)=CC[C@H]3N)[C@@H](N)C[C@H]2NC(=O)[C@@H](O)CN)OC[C@]1(C)O` [Example 59, 6′-(Methyl-trans-3-amino-cyclobutyl)-1-(3-amino-2(S)-hydroxy-propionyl)-sisomicin], the MIC is less than 1 µg/mL in experiment [1] (setting [3]) and 1 to 16 µg/mL (≈ 1.62 to 25.9 µM) in experiment [2] (setting [4]).
Turning to `CN[C@@H]1[C@@H](O)[C@@H](O[C@@H]2[C@@H](O)[C@H](O[C@H]3OC(CNC[C@H]4C[C@H](N)C4)=CC[C@H]3N)[C@@H](N)C[C@H]2NC(=O)C2(O)CC(N)C2)OC[C@]1(C)O` (some centres unmarked) [Example 60], the MIC in experiment [1] (setting [3]) was less than 1 µg/mL; in experiment [2] (setting [4]), 1 to 16 µg/mL (≈ 1.55 to 24.9 µM).
